Experiments:
human Sirt6 = biological target: T1, human Sirt6 (Homo sapiens, UniProt Q8N6T7); experiment: HPLC-based assay, non-labelled myristoyl-lysine peptide; type: biochemical; conditions: myristoyl-lysine substrate
T1 construct: human Sirt6_13–308 (Uniprot: Q8N6T7); made in house

HeLa cells = experiment: cell cycle analysis, propidium iodide flow cytometry; type: cell-based; conditions: treated as for BubR1
Procedure: reader (BMG Polarstar, Oex 390 nm, Oem 460 nm). The amount of inhibition was determined with respect to the mixture with only DMSO.
Immunocytochemistry equipment and settings. The signal of Alexa 546 and DAPI of the same region were acquired with constant illumination parameters as grayscale 8-bit 600 dpi tiff files (1600u 1200 pixels). Alexa 546 was acquired after 639.1 ms with a gamma factor of 0.65 without multiplying. The gain was set to 1. DAPI-stained images were acquired after about 20 ms with the same parameters as the one for Alexa 546 image acquisition. The temperature in the microscope room was kept at RT. Representative regions of each samples were processed with Adobe Photoshop CS2 to generate images in RGB mode by copying the appropriate original greyscale images to the blue (nuclei, DAPI) and the red (acetylated D-tubulin signal, Alexa 546) channel, respectively. As adjustment, a minimal background subtraction was applied on all images during processing in the same manner. The resolution was changed from 600 dpi (source images) to 450 dpi without resampling (Fig. 7 of the main article). LUT (CLUT) of grayscale images of the acetylated D-tubulin signal and of the DAPI signal are shown in Supplementary Fig. 8.
Cell Cycle Analysis. […] Stained cells were subjected to flow cytometric analysis using a FACSCaliber (BD Biosciences) and analyzed by FlowJo software (Tree Star, Inc.).

Human Sirt2_56–356 = biological target: T2, Human Sirt2_56–356 (Homo sapiens, UniProt Q8IXJ6); experiment: competition analyses / inhibition kinetics, α-tubulin peptide, HPLC; type: biochemical; conditions: NAD+ competition analysis
T2 construct: Human Sirt2_56–356 (0.2 mg ml^−1 final concentration); His10 (N, cleaved yes); made in house; host or cells: E. coli BL21(DE3)Codonplus RIPL
T2 sequence (Q8IXJ6 56-356): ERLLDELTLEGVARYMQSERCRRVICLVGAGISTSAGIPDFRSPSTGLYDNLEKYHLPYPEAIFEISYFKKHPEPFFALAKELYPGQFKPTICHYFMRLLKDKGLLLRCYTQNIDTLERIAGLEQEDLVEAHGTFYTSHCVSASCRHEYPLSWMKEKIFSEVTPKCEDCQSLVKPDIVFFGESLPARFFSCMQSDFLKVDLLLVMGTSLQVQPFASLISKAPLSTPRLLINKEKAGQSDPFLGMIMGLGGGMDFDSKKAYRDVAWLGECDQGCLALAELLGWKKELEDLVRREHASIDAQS
Description: The peak areas were integrated and converted to initial velocities calculated from the peak areas as the fraction of deacetylated peptide from total peptide.

human Sirt4 = biological target: T3, human Sirt4 (Homo sapiens, UniProt Q9Y6E7); experiment: Sirt4-dependent deacetylation of acetylated Nnt397-peptide, LC-MS; type: biochemical; conditions: 200 μM, acetyl-lysine substrate
T3 construct: Human Sirt4_25–314 (Uniprot: Q9Y6E7); made in house
T3 sequence (Q9Y6E7 25-314): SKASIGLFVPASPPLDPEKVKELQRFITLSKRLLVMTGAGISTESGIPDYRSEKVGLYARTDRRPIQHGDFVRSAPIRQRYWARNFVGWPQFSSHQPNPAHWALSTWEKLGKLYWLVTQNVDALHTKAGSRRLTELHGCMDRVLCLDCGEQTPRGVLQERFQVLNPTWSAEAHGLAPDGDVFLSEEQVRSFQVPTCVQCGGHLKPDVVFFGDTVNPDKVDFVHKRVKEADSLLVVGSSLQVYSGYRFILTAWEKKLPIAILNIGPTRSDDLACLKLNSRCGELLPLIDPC
Procedure: Initial screens were conducted with a high-throughput fluorescence-based assay using the substrate ZMAL (Z-Lys(Acetyl)-AMC) that was synthesized according to published procedures. For this human Sirt1_133–747, human Sirt2_25–389, human Sirt3_101–399 or Sirt3_118–395 were mixed with assay buffer (50 mM Tris/HCl, 137 mM NaCl, 2.7 mM KCl, 1 mM MgCl2, pH 8.0), β-NAD^+ (final assay concentration 500 μM), the substrate ZMAL (final assay concentration 10.5 μM from a 12.6 mM stock solution in DMSO) and the respective inhibitor in DMSO at various concentrations or DMSO as a control (final DMSO concentration 5–20% (v/v)). The mixture was incubated at 37 °C for 4 h, with agitation at 150 r.p.m. […] Then the fluorescence intensity was measured in a microplate reader (BMG Polarstar, λex 390 nm, λem 460 nm). The amount of inhibition was determined with respect to the mixture with only DMSO. IC50 values were determined with Graphpad Prism software using a non-linear regression to fit the dose–response curve. […] Peaks of acetylated and deacetylated substrate were quantified by absorption at 280 nm. […] The samples were then diluted to a peptide concentration of 5 μM with 0.1% (v/v) formic acid and analysed on an EASY-nLCII connected to a LTQ mass spectrometer (Thermo Fisher Scientific). […]

T1 sequence (Q8N6T7 13-308): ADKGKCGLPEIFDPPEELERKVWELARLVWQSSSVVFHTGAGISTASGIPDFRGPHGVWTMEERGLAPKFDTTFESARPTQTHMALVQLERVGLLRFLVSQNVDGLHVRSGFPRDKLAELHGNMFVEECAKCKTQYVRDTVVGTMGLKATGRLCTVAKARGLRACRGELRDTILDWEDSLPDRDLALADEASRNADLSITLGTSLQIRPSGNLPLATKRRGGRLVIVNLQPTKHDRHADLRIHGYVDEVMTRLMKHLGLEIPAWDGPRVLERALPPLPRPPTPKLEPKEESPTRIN

Cc1cc(C)nc(SCC(=O)Nc2ncc(Cc3cccc4ccccc34)s2)n1 [SirReal2]
inhibition at 200 µM (human Sirt6): 19%
cell cycle distribution (HeLa cells): did not alter
mode of inhibition towards NAD+ (Human Sirt2_56–356): partially non-competitive
effect on activity of Sirt4 (human Sirt4): very little effect
